# Measured values reported in patent publication US4405743A, “Pyrazolylpyrimidine derivatives” (Hokko Chemical Industry Co., Ltd., priority 1981, dated 1983).
# Read-outs that look alike come from different tables or passages of the source.
# Legend:
# [1] = test system: Pyricularia oryzae; format: in vivo, Pyricularia oryzae on rice plant (variety: Asahi); conditions: rice blast, prevention; 200 ppm; 5 days after inoculation
# [2] = test system: Pyricularia oryzae; format: in vivo, Pyricularia oryzae on rice plant (variety: Asahi); conditions: rice blast, curative treatment; sprayed liquid 200 ppm; 5 days after spraying
# [3] = test system: Cochliobolus miyabeanus; assay: Effect of controlling rice brown spot, Experimental Example 3; format: in vivo, Cochliobolus miyabeanus on rice plant (variety: Asahi); conditions: sprayed liquid 500 ppm, 5 days after inoculation
# [4] = test system: Sphaerotheca friliginea; assay: Effect of controlling cucumber powdery mildew, Experimental Example 4; format: in vivo; conditions: sprayed liquid 200 ppm, 10 days after inoculation
# Experimental: 10 ml of each of test liquids diluted to a predetermined concentration was sprayed over seedlings of a cucumber plant (variety: Sagami Hanpaku) grown up to the first leaf stage which has been soil cultured in an unglazed pot with a diameter of 9 cm in a green house. After allowing to stand overnight, the seedlings were sprayed for inoculation with a spore suspension of Sphaerotheca friliginea. Ten days after the inoculation, the rate of a lesion area (%) was checked and a control value was evaluated from the following equation. The degree of chemical injury against a cucumber plant was determined in the same manner as in Experimental Example.
# [5] = test system: rice plant; conditions: blast prevention test, 200 ppm
# [6] = test system: rice plant; conditions: blast curative test, 200 ppm
# [7] = test system: rice plant; conditions: in vivo
# [8] = test system: cucumber plant; conditions: in vivo
Compound,Control Value [1],Control Value [2],Control Value [3],Control Value [4],Degree of chemical injury [5],Degree of chemical injury [6],Degree of chemical injury [7],Degree of chemical injury [8]
Cc1cc(C)cc(Oc2cc(C)nc(-n3nc(C)cc3C)n2)c1 [Compound 29],100%,100%,100%,100%,0,0,0,0
CCCc1c(C)nc(-n2nc(C)cc2C)nc1OC [Compound 40],100%,100%,81%,97%,0,0,0,0
CCSc1nc(-n2nc(C)cc2C)nc(C)c1C [Compound 37],100%,81%,93%,100%,0,0,0,0
CCCCCCc1cc(SCC)nc(-n2nc(C)cc2C)n1 [Compound 45],92%,90%,88%,91%,0,0,0,0
Cc1cccc(Oc2cc(C)nc(-n3nc(C)cc3C)n2)c1 [Compound 12],100%,100%,100%,100%,0,0,0,0
CCCCc1c(C)nc(-n2nc(C)cc2C)nc1Sc1ccccc1 [Compound 44],100%,92%,91%,94%,0,0,0,0
Cc1cc(Oc2ccc(C(C)(C)C)cc2)nc(-n2nc(C)cc2C)n1 [Compound 15],100%,100%,81%,91%,0,0,0,0
Cc1cc(Oc2ccccc2Cl)nc(-n2nc(C)cc2C)n1 [Compound 6],100%,88%,100%,100%,0,0,0,0
CCSc1ccnc(-n2nc(C)cc2C)n1 [Compound 2],100%,100%,94%,88%,0,0,0,0
CCCCCCc1cc(Oc2ccc(Cl)cc2)nc(-n2nc(C)cc2C)n1 [Compound 47],100%,100%,90%,79%,0,0,0,0
CCOc1ccnc(-n2nc(C)cc2C)n1 [Compound 1],100%,100%,99%,90%,0,0,0,0
Cc1cc(Oc2ccc(F)cc2)nc(-n2nc(C)cc2C)n1 [Compound 9],100%,100%,100%,100%,0,0,0,0
CCCCc1c(C)nc(-n2nc(C)cc2C)nc1Oc1ccccc1 [Compound 43],100%,86%,94%,82%,0,0,0,0
Cc1cc(Oc2cccc(Cl)c2)nc(-n2nc(C)cc2C)n1 [Compound 7],100%,100%,100%,100%,0,0,0,0
Cc1cc(C)n(-c2nccc(Oc3ccccc3)n2)n1 [Compound 3],100%,98%,100%,94%,0,0,0,0
Cc1cc(C)n(-c2ncc(C)c(Oc3ccccc3)n2)n1 [Compound 34],92%,100%,98%,100%,0,0,0,0
Cc1cc(Oc2ccc(Cl)cc2Cl)nc(-n2nc(C)cc2C)n1 [Compound 23],100%,86%,84%,82%,0,0,0,0
Cc1ccc(Oc2cc(C)nc(-n3nc(C)cc3C)n2)cc1 [Compound 13],100%,100%,100%,100%,0,0,0,0
CCCCCCc1cc(Sc2ccccc2)nc(-n2nc(C)cc2C)n1 [Compound 46],84%,99%,99%,83%,0,0,0,0
Cc1cc(C)n(-c2nc(C)c(C)c(Sc3ccccc3)n2)n1 [Compound 39],100%,100%,78%,100%,0,0,0,0
